Measurements as given in US6908912B2, “Pyrithione biocides enhanced by zinc metal ions and organic amines” (priority 1999, dated 2005).
“And” between values parts separate entries of the source, which are not always exact repeats. Equal entries are not always repeated. Where two headings read alike, the source gives them in different places.

Legend:
[1] = Solubility and stability of concentrated mixtures of sodium pyrithione, ZnCl2 and organic amines (Example 55); conditions: for solubility and stability of mixture after 24 and 72 hours: mixtures of sodium pyrithione, ZnCl2 and the named amine
[2] = tested on: Fusarium sp. and Cephalosporium sp. metalworking fluid field isolates; experiment: Efficacy against fungi in diluted (1:20) metalworking fluids, flask test (Examples 1-40); format: cell-based
[3] = tested on: Fusarium sp and Cephalosporium sp.; experiment: Culture tube test with formaldehyde releasing biocide, viable fungal counts (Example 52); format: cell-based, fungi
[4] = tested on: Fusarium sp and Cephalosporium sp.; experiment: Prevention of fungal contamination of metalworking fluid, repeated challenge (Example 53); format: cell-based, fungi
[5] = tested on: Klebsiella pnenmoniae bacteria; conditions: cited from earlier work
[6] = tested on: Pseudomonas aeruginosa 9027, Escherichia coli 8739, Pseudomonas fluorescens 12201, Pseudomonas rubescens 12202, and Pseudomonas putida; format: cell-based, bacteria
[7] = tested on: Pseudomonas aeruginosa, Escherichia coli, Pseudomonas fluorescens, Pseudomonas rubescens, and Pseudomonas putida; format: cell-based, bacteria
[8] = Blue discoloration of metalworking fluids in the presence of iron ions, visual inspection (Example 54); format: physicochemical
[9] = Semi-Synthetic Fluid diluted 1:20, final 100 PPM NaPT, 21 PPM ZnCl2, 600 PPM amine or 1000 PPM Mixture as applicable
[10] = Soluble Oil diluted 1:20, final 100 PPM NaPT, 21 PPM ZnCl2, 600 PPM amine or 1000 PPM Mixture as applicable
[11] = Synthetic Fluid diluted 1:20, final 100 PPM NaPT, 21 PPM ZnCl2, 600 PPM amine or 1000 PPM Mixture as applicable
[12] = Semi-synthetic MWF, Triazine 196 PPM ai TZ
[13] = Semi-synthetic MWF, Triazine 393 PPM ai TZ
[14] = Semi-synthetic MWF, Triazine 785 PPM ai TZ

## NCCNCCN [Diethylenetriamine]
[1]
  Appearance at 24 Hrs: S
  Appearance at 72 Hrs: S

## NCCO [MEA, monoethanolamine]
[2]; [9]
  Fungi/ml Day 1: 4.3 × 10^4 Fungi/ml
  Fungi/ml Day 4: 7.0 × 10^4 Fungi/ml
[2]; [10]
  Fungi/ml Day 1: 2.9 × 10^4 Fungi/ml
  Fungi/ml Day 4: 1.0 × 10^4 Fungi/ml
[2]; [11]
  Fungi/ml Day 1: 4.7 × 10^4 Fungi/ml
  Fungi/ml Day 4: 3.6 × 10^4 Fungi/ml

## CCCNCCO [Propylethanolamine]
[1]; mixture of NaPT 10.00, ZnCl2 1.74, organic amine(s) 60.50, water 27.76 weight %, room temperature
  Appearance at 24 Hrs: S

## NCCCN [1,3-Diaminopropane]
[1]
  Appearance at 24 Hrs: S
  Appearance at 72 Hrs: S

## OCCN1CN(CCO)CN(CCO)C1 [Triazine, hexahydro-1,3,5-tris(2-hydroxyethyl)-s-triazine]
[3]; Soluble oil MWF, Triazine 49 PPM ai TZ
  Fungi/ml Day 3: 3.0 × 10^3 Fungi/ml
[3]; Soluble oil MWF, Triazine 98 PPM ai TZ
  Fungi/ml Day 3: 1.1 × 10^3 Fungi/ml
[3]; Soluble oil MWF, Triazine 196 PPM ai TZ
  Fungi/ml Day 3: 100 Fungi/ml
[3]; Soluble oil MWF, Triazine 393 PPM ai TZ
  Fungi/ml Day 3: 0 Fungi/ml
[3]; Soluble oil MWF, Triazine 589 PPM ai TZ
  Fungi/ml Day 3: 0 Fungi/ml
[3]; Soluble oil MWF, Triazine 785 PPM ai TZ
  Fungi/ml Day 3: 0 Fungi/ml
[4]; [12]
  Fungi/ml Week 4: 3.6 × 10^4 Fungi/ml
  Fungi/ml Week 9: 6.2 × 10^4 Fungi/ml
[4]; [13]
  Fungi/ml Week 4: 0 Fungi/ml
  Fungi/ml Week 9: 70 Fungi/ml
[4]; [14]
  Fungi/ml Week 4: 0 Fungi/ml
  Fungi/ml Week 9: 0 Fungi/ml

## 1-amino-2-propanol [Mixture 1A2P]
[2]; [9]
  Fungi/ml Day 1: 4.7 × 10^4 Fungi/ml
  Fungi/ml Day 4: 5.0 × 10^4 Fungi/ml
[2]; [10]
  Fungi/ml Day 1: 4.6 × 10^4 Fungi/ml
  Fungi/ml Day 4: 2.5 × 10^4 Fungi/ml
[2]; [11]
  Fungi/ml Day 1: 5.5 × 10^4 Fungi/ml
  Fungi/ml Day 4: 3.6 × 10^4 Fungi/ml

## NCCOCCO [2(2-Aminoethoxy)ethanol]
[1]; room temperature
  solubility and stability of mixture after 24 and 72 hours: precipitates

## On1ccccc1=S [pyrithione, 1-hydroxy-2-pyridinethione]
[5]
  activity against Klebsiella pnenmoniae bacteria: favorable enhancement

## CCC(N)(CO)CO [2-Amino-2-ethyl-1,3-propanediol]
[1]; room temperature
  solubility and stability of mixture after 24 and 72 hours: precipitates

## zinc chloride [ZnCl2]
[2]
  Fungi/ml Day 1: 7.7 × 10^4 Fungi/ml and 5.9 × 10^4 Fungi/ml and 5.2 × 10^4 Fungi/ml
  Fungi/ml Day 4: 4.3 × 10^4 Fungi/ml and 3.2 × 10^4 Fungi/ml and 3.1 × 10^4 Fungi/ml

## sodium pyrithione [NaPT]
[6]
  Bacteria/ml Day 1: 4.0 × 10^5 Bacteria/ml and 5.2 × 10^6 Bacteria/ml and 4.3 × 10^6 Bacteria/ml
  Bacteria/ml Day 4: 3.0 × 10^5 Bacteria/ml and 3.7 × 10^7 Bacteria/ml and 6.0 × 10^6 Bacteria/ml
[2]
  Fungi/ml Day 1: 5.1 × 10^4 Fungi/ml and 7.0 × 10^4 Fungi/ml and 5.7 × 10^4 Fungi/ml
[3]
  Fungi/ml Day 3: 7.7 × 10^4 Fungi/ml and 4.1 × 10^4 Fungi/ml
[7]
  Bacteria/ml Week 4: 3.2 × 10^6 Bacteria/ml
  Bacteria/ml Week 9: 6.1 × 10^6 Bacteria/ml
[4]
  Fungi/ml Week 4: 8.9 × 10^4 Fungi/ml
  Fungi/ml Week 9: 5.6 × 10^4 Fungi/ml
[8]
  Initial Blue Color: light and dark and blue

## CC(O)CNCC(C)O (stereo not drawn) [Diisopropanolamine]
[1]; room temperature
  solubility and stability of mixture after 24 and 72 hours: precipitates

## COCCCN [3-methoxypropylamine]
[1]; room temperature
  solubility and stability of mixture after 24 and 72 hours: soluble mixtures after 24 hours but not after 72 hours
